From patent US10622572B2, “Organic thin-film transistor and method for manufacturing the same, material for organic thin-film transistor, composition for organic thin-film transistor, compound, and organic semiconductor film” (FUJIFILM Corporation, priority 2015, dated 2020)
Read-outs that look alike come from different tables or passages of the source.

Test: Solubility in organic solvents
Format: physicochemical
Settings: organic solvent or mixture, thermodynamic from solid
[1] = 5 mg in 1 mL anisole, read-out: Solubility Anisole
[2] = 5 mg in 1 mL chloroform, read-out: Solubility Chloroform
[3] = 5 mg in 1 mL tetrahydrofuran, read-out: Solubility Tetrahydrofuran
[4] = 5 mg in 1 mL tetralin, read-out: Solubility Tetralin
[5] = 5 mg in 1 mL toluene, read-out: Solubility Toluene

Measured: solubility

CC(C)[Si](C#Cc1cc2c(cc(C#C[Si](C(C)C)(C(C)C)C(C)C)c3c4cc(F)sc4ccc23)c2ccc3sc(F)cc3c12)(C(C)C)C(C)C [Compound 3]
> 5000 µg/mL: [1] | [2] | [3] | [4] | [5]

CC(C)[Si](C#Cc1cc2c(cc(C#C[Si](C(C)C)(C(C)C)C(C)C)c3c2ccc2cc(F)sc23)c2ccc3cc(F)sc3c12)(C(C)C)C(C)C [Compound 4]
> 5000 µg/mL: [1] | [2] | [3] | [4] | [5]

CC(C)[Si](C#Cc1cc2c(cc(C#C[Si](C(C)C)(C(C)C)C(C)C)c3c4ccsc4ccc23)c2ccc3sccc3c12)(C(C)C)C(C)C [Compound 1]
> 5000 µg/mL: [1] | [2] | [3] | [4] | [5]

CC(C)[Si](C#Cc1cc2c(cc(C#C[Si](C(C)C)(C(C)C)C(C)C)c3c2ccc2ccsc23)c2ccc3ccsc3c12)(C(C)C)C(C)C [Compound 2]
> 5000 µg/mL: [1] | [2] | [3] | [4] | [5]
